“Also recorded” adds a separate entry of the source.
Tests used:
[1] = system: C57B1/6 mice; assay: Radiation pneumonitis after whole-thorax x-ray irradiation, H&E of lung, wild-type mice; type: in vivo, mouse
Protocol: (§1) However, before embarking on the planned experiment, we decided to perform a preliminary, short-term treatment feasibility experiment to ensure some mouse survival after 20 Gy of thoracic irradiation (FIG. 1B). The preliminary experiment was performed with WT and DR5-null mice that were irradiated with 20 Gy, and this was followed by either weekly doses of TIC10/ONC201 (100 mg/kg for total of two doses) or twice a week doses of TLY012 (10 mg/kg for total of four doses) for 2 weeks.
(§2) Animal studies were carried out at Brown University facilities with approval from Brown University IACUC. C57B1/6 mice (Taconic), mice with bi-allelic loss of TRAIL Death Receptor-(DR5-/-) in a C57B1/6 background, and mice with bi-allelic loss of TRAIL (TRAIL -/-) in a C57B1/6 background were given a single whole-thorax x-ray (Philips RT250) irradiation dose of 20 Gy with shielding of other organs. 8-15-week-old male and female mice of each genotype were used. […] Treatment was continued for two weeks, where TLY012 was administered twice a week and ONC201 was administered once a week. For each genetic background, two mice received a control PO, two mice received TLY012 IP, and two mice received ONC201 PO. Mice were weighed twice a week, and 13 days post-irradiation all mice were euthanized. Organs were harvested from the mice and 600 μL of blood was collected via cardiac puncture for serum cytokine analysis. Organs were preserved in 10% formalin then embedded in paraffin and sectioned at a distance of 5 μm. […] TRAIL-/- female mice were also subjected to a survival study with a single whole-thorax radiation doses of 15 Gy or 18 Gy treated with the same regimen of TLY012 or control (n=2/radiation dose/treatment) (FIG. 3B). In order to determine the lethal dose of radiation for C57B1/6 mice, female C57B1/6 mice were treated with a single dose of whole-thorax irradiation of 25 Gy in a survival study where they were treated with either TLY012 or remained control (n=6/treatment) (FIG. 3C).

[2] = system: DR5-/- mice; assay: Radiation pneumonitis after whole-thorax x-ray irradiation, H&E of lung, DR5-null mice; type: in vivo, mouse; settings: 20 Gy
Protocol: as §1
Animal studies were carried out at Brown University facilities with approval from Brown University IACUC. C57B1/6 mice (Taconic), mice with bi-allelic loss of TRAIL Death Receptor-(DR5-/-) in a C57B1/6 background, and mice with bi-allelic loss of TRAIL (TRAIL -/-) in a C57B1/6 background were given a single whole-thorax x-ray (Philips RT250) irradiation dose of 20 Gy with shielding of other organs. 8-15-week-old male and female mice of each genotype were used. […] Treatment was continued for two weeks, where TLY012 was administered twice a week and ONC201 was administered once a week. For each genetic background, two mice received a control PO, two mice received TLY012 IP, and two mice received ONC201 PO. Mice were weighed twice a week, and 13 days post-irradiation all mice were euthanized. Organs were harvested from the mice and 600 μL of blood was collected via cardiac puncture for serum cytokine analysis. […]

[3] = system: TRAIL-/- mice; assay: Radiation pneumonitis after whole-thorax x-ray irradiation, H&E of lung, TRAIL-null mice; type: in vivo, mouse; settings: TRAIL-/- male or female mice, 20 Gy thoracic irradiation, two weeks treatment, FIG. 2A, B
Protocol: as §2, with “In order to determine the lethal dose of radiation for C57B1/6 mice, female C57B1/6 mice were treated with a single dose of whole-thorax irradiation of 25 Gy in a survival study where they were treated with either TLY012 or remained control (n=6/treatment) (FIG. 3C).” left out

[4] = system: male TRAIL-/- mice; assay: Masson's trichrome stain of lung 22 weeks post-radiation (late fibrosis); type: in vivo, mouse; settings: 18 Gy, 10 mg/kg twice a week
From the text: In order to examine the late term effects of thoracic radiation, we designed an experiment where the single radiation dose was lowered to 18 Gy in male TRAIL-/- mice. […] At 22 weeks when mice reached criteria for euthanasia, they were sacrificed and lung tissue was harvested. Lung tissue slides were stained with Masson's trichrome and imaged at 10X on an Olympus VS200 slide scanner.

[5] = system: serum cytokines; assay: Serum cytokine analysis in the NanoString cohort; type: in vivo, mouse
Protocol: All mouse serum samples were analyzed by a custom R&D systems Murine Premixed Multi- Analyte Kit (R&D Systems, Inc., Minneapolis, MN). The panel was run on a Luminex 200 Instrument (Luminex Corporation, Austin, TX) according to the manufacturer's instructions. Murine serum levels of Angiopoietin-2, BAFF/BLyS/TNFSF13B, CCL2/JE/MCP-1, CCL3/MIP-1 alpha, CCL4/MIP-1 beta, CCL5/RANTES, CCL7/MCP-3/MARC, CCL11/Eotaxin, CCL12/MCP-5, CCL20/MIP-3 alpha, CCL21/6Ckine, CCL22/MDC, Chitinase 3-like 1, CXCL1/GRO alpha/KC/CINC-1, CXCL10/IP-10/CRG-2, CXCL12/S DF- 1 alpha, Dkk-1, FGF basic/FGF2/bFGF, GDF-15, GM-CSF, Granzyme B, IFN-gamma, IGF-I/IGF-1, IL-1 alpha/IL-1F1, IL-1 beta/IL-1F2, IL-2, IL-3, IL-4, IL-6, IL-7, IL-10, IL-13, IL-16, IL-17/IL-17A, IL-27, IL-33 M-CSF, MMP-3, MMP-8, MMP-12, Prolactin, TWEAK/TNFSF12, VEGF, and VEGFR2/KDR/Flk-1 were measured. Analyte values were reported in picograms per milliliter (pg/mL). […] Latent TGF-β was activated in samples using 1 N HCl and samples were neutralized with 1.2 N NaOH/0.5 M HEPES. Samples were assayed immediately after neutralization.
One hour before radiation mice were grouped into control or given 10 mg/kg of TLY012 via IP injection (n=3/gender/treatment). Mice were treated and weighed twice a week up until 11 days post-radiation when all mice were euthanized.
Rodent sacrifice was performed following anesthetization with 100 mg/kg ketamine and 10 mg/kg xylazine administered intraperitoneally. ˜400-600 μL blood was first collected throughcardiac puncture with a 26G ⅝″ needle through the intercostal space into the left ventricle. […] 1 mL of 2 mg/mL EDTA in PBS was injected through the right ventricle to perfuse the lungs, after which the lungs were excised, washed further in PBS, submerged in RNAlater (Sigma-Aldrich, #R0901, Missouri, USA), and flash frozen in liquid nitrogen.

[6] = system: e0771 orthotopic breast tumors in C57B1/6 mice; assay: Orthotopic e0771 breast tumor model with 20 Gy whole-thorax irradiation
Protocol: C57B1/6 female mice (Taconic) were injected with 100,000 cells of murine breast cancer (e0771) in the right second mammary fat pad on day 0 of the experiment. […] Each group (n=3) also received a single whole-thorax x-ray irradiation dose of 20 Gy with shielding of other organs. One group (n=3) received no treatment and no radiation. The long axis and short axis of the tumors were measured using calipers and recorded twice a week. On day 18 all mice were euthanized at a humane endpoint, which was defined by 20% weight loss and/or a tumor volume of 2000 mm^3 (˜10% of body weight). Organs and tumors were harvested from the mice and 600 μL of blood was collected via cardiac puncture for serum cytokine analysis. Once tumors were extracted, they were weighed and measured to determine final volume and weight. Pulse oximeter readings were taken initially before radiation treatment and before sacrifice 9 days post-radiation (MouseSTAT Jr. Pulse Oximeter, Kent Scientific). When mice were under anesthesia the sensor of the MouseSTAT Jr. was placed on the hind right paw for 30 seconds. The highest and lowest values shown by the pulse oximeter during this time were recorded and then averaged together. The mean of all the averages per treatment group was then calculated.

[7] = NanoString cohort, FIG. 5C, relative to untreated control

Which results are given for “TLY012: N-terminal PEGylated recombinant human TRAIL; PEGylated trimeric TRAIL formulation”?
protection from pneumonitis ([1]; WT mice, 20 Gy thoracic irradiation, preliminary experiment, 2 weeks treatment, versus irradiated control, FIG. 1C): qualitative evidence of protection from pneumonitis; rescue from radiation-induced pneumonitis ([1]; irradiated C57B1/6 mice, FIG. 2): could rescue mice from radiation-induced pneumonitis; rescue from radiation pneumonitis ([2]; DR5-/- mice, FIG. 2A, B): did not observe rescue; protection from pneumonitis ([2]; DR5-null mice, preliminary experiment, 2 weeks treatment, FIG. 1C): lack of protection; rescue from radiation pneumonitis [3]: rescued; collagen deposition / fibrosis (Masson's trichrome) [4]: rescue; also recorded: decrease in collagen deposition; also recorded: less fibrosis; CCL3/MIP-lalpha serum level [5, 7]: decrease; GDF-15 serum level [5, 7]: decrease; IL-1beta serum level [5, 7]: increase; fold-change in the cytokine levels of inflammatory markers in serum ([5]; serum taken 3 days after last administration): no statistically significant fold-change; effect on anti-tumor efficacy of radiation (tumor weight and volume) ([6]; 20 Gy on day 9, treatment days 9, 12, 16, sacrifice day 18, FIG. 6B, C): no evidence that ONC201, TLY012 or their combination reduced efficacy of treatment; alveolar-wall thickness (H&E) ([6]; 9 days post irradiation): reduction; lung inflammation (H&E) ([6]; 9 days post irradiation): decreased inflammation; oxygen saturation (pulse oximetry) ([6]; 9 days post-radiation, versus irradiated mice without further treatment, FIG. 6D): more conserved; also recorded: partially rescued; CCL22/MDC levels ([6]; irradiated tumor-bearing mice, versus irradiated control, FIG. 6E): significant decrease; also recorded: reduction; also recorded: Reduced; rescue from radiation induced pneumonitis ([6]; tumor-bearing mice, 20 Gy): more potent by TLY012 than with ONC201
